US20240067662A1, “KRAS INHIBITORS” (Bristol-Myers Squibb Company, priority 2022, published 2024)

Biological target: GMPPNP-loaded KRAS G12C (Homo sapiens, UniProt P01116, G12C)
Experiment: KRAS G12C RAF Disruption Assay (HTRF)
Assay type: biochemical
Conditions: recombinant GMPPNP-loaded KRAS G12C (5 nM), 20 min with compound; GST-RAF1 RBD (9 nM); HTRF signal; read-out: KRASG12C RAF Disruption Assay (IC50)
Method: KRAS^G12C RAF Disruption Assay
This is a functional assay that measures activity of compounds against KRAS-G12C^(ON), i.e., the active form of KRAS G12C. Recombinant GMPPNP-loaded KRAS G12C (5 nM) was treated with compound at room temperature for 20 minutes in assay buffer (50 mM Tris pH 7.5, 100 mM NaCl, 1 mM MgCl2, 1 mM DTT, 100ug/ml BSA). Recombinant GST-RAF1 RBD (9 nM) was added, and the reaction mixture was incubated for 20 minutes. SA-Tb (0.25 nM) was added, and the reaction mixture was incubated for 3 hours. HTRF signal was measured (PerkinElmer Envision), the signal ratio (λem 520/λem 495) was calculated, and IC50 values were calculated from the dose-response curve.

GMPPNP-loaded KRAS G12C, sequence (P01116 1-188 isoform P01116-2 G12C): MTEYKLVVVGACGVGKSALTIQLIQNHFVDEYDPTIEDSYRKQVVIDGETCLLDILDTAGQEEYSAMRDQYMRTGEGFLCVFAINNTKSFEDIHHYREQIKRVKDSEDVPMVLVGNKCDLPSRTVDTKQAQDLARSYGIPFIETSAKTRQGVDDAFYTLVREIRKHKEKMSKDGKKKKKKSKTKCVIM

Structure (SMILES) | IC50 [nM]
C#Cc1c(F)ccc2cc(O)cc(-c3ncc4c(N5C[C@H]6CC[C@@H](C5)N6C(=O)/C(F)=C/c5nnc(C)s5)nc(OC[C@@]56CCCN5C[C@H](F)C6)nc4c3F)c12 [Compound 14, (Z)-1-((1R, 5S)-3-(7-(8-ethynyl-7-fluoro-3-hydroxynaphthalen-1-yl)-8-fluoro-2-(((2R, 7aS)-2-fluorotetrahydro-1H-pyrrolizin-7a(5H)-yl)methoxy)pyrido[4,3-d]pyrimidin-4-yl)-3,8-diazabicyclo[3.2.1]octan-8-yl)-2-fluoro-3-(5-methyl-1,3,4-thiadiazol-2-yl)prop-2-en-1-one] | 22
C#Cc1c(F)ccc2cc(O)cc(-c3ncc4c(N5C[C@H]6CC[C@@H](C5)N6C(=O)/C(F)=C/c5cc(C)ccn5)nc(OC[C@@]56CCCN5C[C@H](F)C6)nc4c3F)c12 [Compound 3, (Z)-1-((1R, 5S)-3-(7-(8-ethynyl-7-fluoro-3-hydroxynaphthalen-1-yl)-8-fluoro-2-(((2R, 7aS)-2-fluorotetrahydro-1H-pyrrolizin-7a(5H)-yl)methoxy)pyrido[4,3-d]pyrimidin-4-yl)-3,8-diazabicyclo[3.2.1]octan-8-yl)-2-fluoro-3-(4-methylpyridin-2-yl)prop-2-en-1-one] | 19
CN1CCC[C@H]1COc1nc(N2CCN(C(=O)/C(F)=C/c3ccccn3)[C@@H](CC#N)C2)c2cnc(-c3cccc4ccc(F)cc34)c(F)c2n1 [Example 36, 2-((S)-1-((Z)-2-fluoro-3-(pyridin-2-yl)acryloyl)-4-(8-fluoro-7-(7-fluoronaphthalen-1-yl)-2-(((S)-1-methylpyrrolidin-2-yl)methoxy)pyrido[4,3-d]pyrimidin-4-yl)piperazin-2-yl)acetonitrile] | 150
C#Cc1cccc2cccc(-c3ncc4c(N(C)[C@H]5CN(C(=O)/C(F)=C/c6cnccn6)C[C@H]5F)nc(OC[C@@]56CCCN5C[C@H](F)C6)nc4c3F)c12 [Compound 130, (Z)-1-((3S,4R)-3-((7-(8-ethynylnaphthalen-1-yl)-8-fluoro-2-(((2R, 7aS)-2-fluorotetrahydro-1H-pyrrolizin-7a(5H)-yl)methoxy)pyrido[4,3-d]pyrimidin-4-yl)(methyl)amino)-4-fluoropyrrolidin-1-yl)-2-fluoro-3-(pyrazin-2-yl)prop-2-en-1-one] | 60
C#Cc1c(F)ccc2cc(O)cc(-c3ncc4c(N5CC6CCC(C5)N6C(=O)/C(F)=C/c5nc(Br)cs5)nc(OC[C@@]56CCCN5C[C@H](F)C6)nc4c3F)c12 [Compound 11, (Z)-3-(4-bromothiazol-2-yl)-1-((JR, 5S)-3-(7-(8-ethynyl-7-fluoro-3-hydroxynaphthalen-1-yl)-8-fluoro-2-(((2R, 7aS)-2-fluorotetrahydro-1H-pyrrolizin-7a(5H)-yl)methoxy)pyrido[4,3-d]pyrimidin-4-yl)-3,8-diazabicyclo[3.2.1]octan-8-yl)-2-fluoroprop-2-en-1-one] | 450
C#Cc1c(F)ccc2cc(O)cc(-c3ncc4c(N5CCN(C(=O)/C(F)=C/c6ccccn6)CC5)nc(OC[C@@]56CCCN5C[C@H](F)C6)nc4c3F)c12 [Example 27, (Z)-1-(4-(7-(8-ethynyl-7-fluoro-3-hydroxynaphthalen-1-yl)-8-fluoro-2-(((2R, 7aS)-2-fluorotetrahydro-1H-pyrrolizin-7a(5H)-yl)methoxy)pyrido[4,3-d]pyrimidin-4-yl)piperazin-1-yl)-2-fluoro-3-(pyridin-2-yl)prop-2-en-1-one] | 3
C#Cc1cccc2cccc(-c3ncc4c(N5CCN(C(=O)/C(Cl)=C/c6ccccn6)CC5)nc(OC[C@@]56CCCN5C[C@H](F)C6)nc4c3F)c12 [Compound 126, (Z)-2-chloro-1-(4-(7-(8-ethynylnaphthalen-1-yl)-8-fluoro-2-(((2R, 7aS)-2-fluorotetrahydro-1H-pyrrolizin-7a(5H)-yl)methoxy)pyrido[4,3-d]pyrimidin-4-yl)piperazin-1-yl)-3-(pyridin-2-yl)prop-2-en-1-one] | 47000
C#Cc1c(F)ccc2cc(O)cc(-c3ncc4c(N5CCN(C(=O)/C(F)=C/c6ccccn6)CC5)nc(OC[C@@H]5CCCN5CCCN=[N+]=[N-])nc4c3F)c12 [Compound 111, (S,Z)-1-(4-(2-((1-(3-azidopropyl)pyrrolidin-2-yl)methoxy)-7-(8-ethynyl-7-fluoro-3-hydroxynaphthalen-1-yl)-8-fluoropyrido[4,3-d]pyrimidin-4-yl)piperazin-1-yl)-2-fluoro-3-(pyridin-2-yl)prop-2-en-1-one] | 11
C#Cc1cccc2cccc(-c3ncc4c(N5CCN(C(=O)/C(F)=C/c6cncc(C)n6)CC5)nc(OC[C@@]56CCCN5C[C@H](F)C6)nc4c3F)c12 [Compound 125, (Z)-1-(4-(7-(8-ethynylnaphthalen-1-yl)-8-fluoro-2-(((2R, 7aS)-2-fluorotetrahydro-1H-pyrrolizin-7a(5H)-yl)methoxy)pyrido[4,3-d]pyrimidin-4-yl)piperazin-1-yl)-2-fluoro-3-(6-methylpyrazin-2-yl)prop-2-en-1-one] | 480
CN1CCC[C@H]1COc1nc(N2CCN(C(=O)/C(F)=C/c3nccs3)[C@@H](CC#N)C2)c2cnc(-c3cc(O)ccc3F)c(F)c2n1 [Example 23, 2-((S)-1-((Z)-2-fluoro-3-(thiazol-2-yl)acryloyl)-4-(8-fluoro-7-(2-fluoro-5-hydroxyphenyl)-2-(((S)-1-methylpyrrolidin-2-yl)methoxy)pyrido[4,3-d]pyrimidin-4-yl)piperazin-2-yl)acetonitrile] | 180
C#Cc1cccc2cccc(-c3ncc4c(N(C)[C@@H]5CCN(C(=O)/C(F)=C/c6ccccn6)C5)nc(OC[C@@]56CCCN5C[C@H](F)C6)nc4c3F)c12 [Compound 115, (Z)-1-((R)-3-((7-(8-ethynylnaphthalen-1-yl)-8-fluoro-2-(((2R, 7aS)-2-fluorotetrahydro-1H-pyrrolizin-7a(5H)-yl)methoxy)pyrido[4,3-d]pyrimidin-4-yl)(methyl)amino)pyrrolidin-1-yl)-2-fluoro-3-(pyridin-2-yl)prop-2-en-1-one] | 14

Other lines, results leading:

IC50 [nM] | Structure (SMILES)
110 | C#Cc1cccc2cccc(-c3ncc4c(N(C)C5CCN(C(=O)/C(F)=C/c6ccccn6)C5C)nc(OC[C@@]56CCCN5C[C@H](F)C6)nc4c3F)c12 (single isomer, unassigned) [Example 74 trans isomer 2]
120 | C#Cc1cccc2cccc(-c3ncc4c(N5CCCN(C(=O)/C(F)=C/c6ccccn6)CC5)nc(OC[C@@]56CCCN5C[C@H](F)C6)nc4c3F)c12 [Example 77, (Z)-1-(4-(7-(8-ethynylnaphthalen-1-yl)-8-fluoro-2-(((2R, 7aS)-2-fluorotetrahydro-1H-pyrrolizin-7a(5H)-yl)methoxy)pyrido[4,3-d]pyrimidin-4-yl)-1,4-diazepan-1-yl)-2-fluoro-3-(pyridin-2-yl)prop-2-en-1-one]
590 | C#Cc1cccc2cccc(-c3ncc4c(N5CCN(C(=O)/C(F)=C/c6nccs6)C[C@H]5C)nc(OC[C@@]56CCCN5C[C@H](F)C6)nc4c3F)c12 [Example 76, (Z)-1-((3R)-4-(7-(8-ethynylnaphthalen-1-yl)-8-fluoro-2-(((2R, 7aS)-2-fluorotetrahydro-1H-pyrrolizin-7a(5H)-yl)methoxy)pyrido[4,3-d]pyrimidin-4-yl)-3-methylpiperazin-1-yl)-2-fluoro-3-(thiazol-2-yl)prop-2-en-1-one]
1000 | C#Cc1cccc2cccc(-c3ncc4c(N(C)C5CCN(C(=O)/C(F)=C/c6ccccn6)C5C)nc(OC[C@@]56CCCN5C[C@H](F)C6)nc4c3F)c12 (single isomer, unassigned) [Example 74 cis isomer 1]
2 | C#Cc1c(F)ccc2cc(O)cc(-c3ncc4c(N5CCN(C(=O)/C(F)=C/c6ccccn6)CC5)nc(OC[C@]56CCC[C@H]5N(C)CCC6)nc4c3F)c12 [Example 59, (Z)-1-(4-(7-(8-ethynyl-7-fluoro-3-hydroxynaphthalen-1-yl)-8-fluoro-2-(((4aS, 7aR)-1-methyloctahydro-4aH-cyclopenta[b]pyridin-4a-yl)methoxy)pyrido[4,3-d]pyrimidin-4-yl)piperazin-1-yl)-2-fluoro-3-(pyridin-2-yl)prop-2-en-1-one]
44 | C#Cc1c(F)ccc2cccc(-c3ncc4c(N5CCN(C(=O)/C(F)=C/c6nccs6)CC5)nc(OC[C@@]56CCCN5C[C@H](F)C6)nc4c3F)c12 [Example 53, (Z)-1-(4-(7-(8-ethynyl-7-fluoronaphthalen-1-yl)-8-fluoro-2-(((2R, 7aS)-2-fluorotetrahydro-1H-pyrrolizin-7a(5H)-yl)methoxy)pyrido[4,3-d]pyrimidin-4-yl)piperazin-1-yl)-2-fluoro-3-(thiazol-2-yl)prop-2-en-1-one]
300 | C#Cc1cccc2cccc(-c3ncc4c(N5CCN(C(=O)/C(F)=C/c6nccs6)C[C@@H]5C)nc(OC[C@@]56CCCN5C[C@H](F)C6)nc4c3F)c12 [Example 62, (Z)-1-((S)-4-(7-(8-ethynylnaphthalen-1-yl)-8-fluoro-2-(((2R, 7aS)-2-fluorotetrahydro-1H-pyrrolizin-7a(5H)-yl)methoxy)pyrido[4,3-d]pyrimidin-4-yl)-3-methylpiperazin-1-yl)-2-fluoro-3-(thiazol-2-yl)prop-2-en-1-one]
460 | N#CC[C@H]1CN(c2nc(OC[C@@]34CCCN3C[C@H](F)C4)nc3c(F)c(-c4cc(F)ccc4C(F)(F)F)ncc23)CCN1C(=O)/C(F)=C/c1nccs1 [Example 45, 2-((S)-1-((Z)-2-fluoro-3-(thiazol-2-yl)acryloyl)-4-(8-fluoro-7-(5-fluoro-2-(trifluoromethyl)phenyl)-2-(((2R, 7aS)-2-fluorotetrahydro-1H-pyrrolizin-7a(5H)-yl)methoxy)pyrido[4,3-d]pyrimidin-4-yl)piperazin-2-yl)acetonitrile]
